# Source: patent US12077503B2, “Substituted cyclic amides and their use as herbicides” (FMC CORPORATION, priority 2015, dated 2024)
# Experiments:
# Assay type in all cases: in vivo
# [1] = test system: Kochia (Kochia scoparia); experiment: Test A preemergence; settings: Bassia scoparia, pre-emergence, 240 h, Preemergence
# Method in brief: (§1)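 Treatment is preemergence as a directed soil spray after planting, or postemergence at the one- to two-leaf stage, with test chemical in a non-phytotoxic solvent mixture plus surfactant. Plants stay in the greenhouse about 10 d before visual injury scoring on a 0 to 100 scale versus untreated controls.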
# [2] = test system: barnyardgrass (Echinochloa crus-galli); experiment: Test A preemergence; settings: Echinochloa crus-galli, pre-emergence, 240 h, Preemergence
# Method in brief: as §1
# [3] = test system: giant foxtail (Setaria faberii); experiment: Test A preemergence; settings: Setaria faberi, pre-emergence, 240 h, Preemergence
# Method in brief: as §1
# [4] = test system: pigweed (Amaranthus retroflexus); experiment: Test A preemergence; settings: Amaranthus retroflexus, pre-emergence, 240 h, Preemergence
# [5] = test system: ragweed (common ragweed, Ambrosia elatior); experiment: Test A preemergence; settings: Ambrosia artemisiifolia, pre-emergence, 240 h, Preemergence
# Method in brief: as §1
# [6] = test system: ryegrass, Italian (Italian ryegrass, Lolium multiflorum); experiment: Test A preemergence; settings: Lolium multiflorum, pre-emergence, 240 h, Preemergence
# Method in brief: as §1
# [7] = test system: Galium (catchweed bedstraw, Galium aparine); experiment: Test A postemergence; settings: Galium, post-emergence, 240 h, Postemergence, read-out: Plant response rating, Galium
# Method in brief: as §1
# [8] = test system: Kochia (Kochia scoparia); experiment: Test A postemergence; settings: Bassia scoparia, post-emergence, 240 h, Postemergence, read-out: Plant response rating, Kochia
# Method in brief: as §1
# [9] = test system: barnyardgrass (Echinochloa crus-galli); experiment: Test A postemergence; settings: Echinochloa crus-galli, post-emergence, 240 h, Postemergence, read-out: Plant response rating, Barnyardgrass
# Method in brief: as §1
# [10] = test system: blackgrass (Alopecurus myosuroides); experiment: Test A postemergence; settings: Alopecurus myosuroides, post-emergence, 240 h, Postemergence, read-out: Plant response rating, Blackgrass
# Method in brief: as §1
# [11] = test system: corn (Zea mays); experiment: Test A postemergence; settings: Zea mays, post-emergence, 240 h, Postemergence
# Method in brief: as §1
# [12] = test system: giant foxtail (Setaria faberii); experiment: Test A postemergence; settings: Setaria faberi, post-emergence, 240 h, Postemergence, read-out: Plant response rating, Foxtail, Giant
# Method in brief: as §1
# [13] = test system: pigweed (Amaranthus retroflexus); experiment: Test A postemergence; settings: Amaranthus retroflexus, post-emergence, 240 h, Postemergence, read-out: Plant response rating, Pigweed
# Method in brief: as §1
# [14] = test system: ragweed (common ragweed, Ambrosia elatior); experiment: Test A postemergence; settings: Ambrosia artemisiifolia, post-emergence, 240 h, Postemergence, read-out: Plant response rating, Ragweed
# Method in brief: as §1
# [15] = test system: ryegrass, Italian (Italian ryegrass, Lolium multiflorum); experiment: Test A postemergence; settings: Lolium multiflorum, post-emergence, 240 h, Postemergence, read-out: Plant response rating, Ryegrass, Italian
# Method in brief: as §1
# [16] = test system: wheat (Triticum aestivum); experiment: Test A postemergence; settings: Triticum aestivum, post-emergence, 240 h, Postemergence, read-out: Plant response rating, Wheat
# Method in brief: as §1
# [17] = test system: barnyardgrass (Echinochloa crus-galli); experiment: Test B flooded paddy test; settings: Echinochloa crus-galli, Flood, 250 g ai/ha; scale of 0 to 100 where 0 is no effect and 100 is complete control; read-out: Barnyardgrass plant response rating
# Method in brief: (§2)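 Response scored visually against untreated controls, 0 = no effect and 100 = complete control, 13–15 d after treatment in the greenhouse. Compounds added to paddy water held 3 cm above soil surface. Treatment given at 2-leaf stage.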
# [18] = test system: ducksalad (Heteranthera limosa); experiment: Test B flooded paddy test; settings: Heteranthera limosa, Flood, 250 g ai/ha; scale of 0 to 100 where 0 is no effect and 100 is complete control; read-out: Ducksalad plant response rating
# Method in brief: as §2
# [19] = test system: rice (Oryra sativa); experiment: Test B flooded paddy test; settings: Oryza sativa, Flood, 250 g ai/ha; scale of 0 to 100 where 0 is no effect and 100 is complete control; read-out: Rice plant response rating
# Method in brief: as §2
# [20] = test system: sedge, umbrella (small-flower umbrella sedge, Cyperus difformis); experiment: Test B flooded paddy test; settings: Cyperus difformis, Flood, 250 g ai/ha; scale of 0 to 100 where 0 is no effect and 100 is complete control; read-out: Sedge, Umbrella plant response rating
# Method in brief: as §2
# [21] = 125 g ai/ha, visual injury after approximately 10 d, 0 to 100 scale where 0 is no effect and 100 is complete control
# [22] = 31 g ai/ha, visual injury after approx. 10 d, 0 to 100 scale, 0 no effect, 100 complete control
compound,measurement,setting,value
Cc1oncc1NC(=O)[C@H]1C(=O)N(C)C[C@@H]1c1cc(F)cc(F)c1 [Compound 970],pest or weed control at 125 g/ha,"[1]; 125 g ai/ha, visual injury rating after approximately 10 d, read-out: Kochia plant response rating (0 to 100 scale, 0 is no effect, 100 is complete control)",0%
same,pest or weed control at 31 g/ha,"[1]; 31 g ai/ha, 0 to 100 scale (0 no effect, 100 complete control), read-out: Plant response rating, Kochia",0%
same,pest or weed control at 125 g/ha,"[2]; 125 g ai/ha, visual injury rating after approximately 10 d, read-out: Barnyardgrass plant response rating (0 to 100 scale, 0 is no effect, 100 is complete control)",0%
same,pest or weed control at 31 g/ha,"[2]; 31 g ai/ha, 0 to 100 scale (0 no effect, 100 complete control), read-out: Plant response rating, Barnyardgrass",0%
same,pest or weed control at 125 g/ha,"[3]; 125 g ai/ha, visual injury rating after approximately 10 d, read-out: Foxtail, Giant plant response rating (0 to 100 scale, 0 is no effect, 100 is complete control)",80%
same,pest or weed control at 31 g/ha,"[3]; 31 g ai/ha, 0 to 100 scale (0 no effect, 100 complete control), read-out: Plant response rating, Foxtail, Giant",20%
same,pest or weed control at 125 g/ha,"[4]; 125 g ai/ha, visual injury rating after approximately 10 d, read-out: Pigweed plant response rating (0 to 100 scale, 0 is no effect, 100 is complete control)",0%
same,pest or weed control at 31 g/ha,"[4]; 31 g ai/ha, 0 to 100 scale (0 no effect, 100 complete control), read-out: Plant response rating, Pigweed",0%
same,pest or weed control at 125 g/ha,"[5]; 125 g ai/ha, visual injury rating after approximately 10 d, read-out: Ragweed plant response rating (0 to 100 scale, 0 is no effect, 100 is complete control)",0%
same,pest or weed control at 31 g/ha,"[5]; 31 g ai/ha, 0 to 100 scale (0 no effect, 100 complete control), read-out: Plant response rating, Ragweed",0%
same,pest or weed control at 125 g/ha,"[6]; 125 g ai/ha, visual injury rating after approximately 10 d, read-out: Ryegrass, Italian plant response rating (0 to 100 scale, 0 is no effect, 100 is complete control)",0%
same,pest or weed control at 31 g/ha,"[6]; 31 g ai/ha, 0 to 100 scale (0 no effect, 100 complete control), read-out: Plant response rating, Ryegrass, Italian",0%
same,pest or weed control at 125 g/ha,[7]; [21],0%
same,pest or weed control at 31 g/ha,[7]; [22],0%
same,pest or weed control at 125 g/ha,[8]; [21],0%
same,pest or weed control at 31 g/ha,[8]; [22],0%
same,pest or weed control at 125 g/ha,[9]; [21],0%
same,pest or weed control at 31 g/ha,[9]; [22],0%
same,pest or weed control at 125 g/ha,[10]; [21],0%
same,pest or weed control at 31 g/ha,[10]; [22],0%
same,"Corn plant response rating (crop injury, 0 = no effect, 100 = complete kill) at 125 g/ha",[11]; [21],0%
same,"Corn plant response rating (crop injury, 0 = no effect, 100 = complete kill) at 31 g/ha",[11]; [22],0%
same,pest or weed control at 125 g/ha,[12]; [21],0%
same,pest or weed control at 31 g/ha,[12]; [22],0%
same,pest or weed control at 125 g/ha,[13]; [21],0%
same,pest or weed control at 31 g/ha,[13]; [22],0%
same,pest or weed control at 125 g/ha,[14]; [21],0%
same,pest or weed control at 31 g/ha,[14]; [22],0%
same,pest or weed control at 125 g/ha,[15]; [21],0%
same,pest or weed control at 31 g/ha,[15]; [22],0%
same,plant injury at 125 g/ha,[16]; [21],0%
same,plant injury at 31 g/ha,[16]; [22],0%
same,pest or weed control at 250 g/ha,[17],0%
same,pest or weed control at 250 g/ha,[18],0%
same,pest or weed control at 250 g/ha,[19],0%
same,pest or weed control at 250 g/ha,[20],0%
